Assay [1] has as its system T-47D cells (breast). Briefly: Antiproliferative activity (SRB), T-47D. The class given is cell-based, human. The following applies: 48 h, means ± SEM, n = 3. The procedure:
(§1) Stock solutions in DMSO of the samples were prepared to dissolve the plant extract at a concentration of 100 mg/mL and the pure compounds 1–2 at 40 mM. For the antiproliferative activity tests, human solid tumor cells (100 µL) were seeded onto 96-well plates at a density of 2500 (A549, HBL-100, HeLa, and SW1573) or 5000 (T-47D, and WiDr) cells/well.
(§2) On the next day, the samples were added to the cell cultures in triplicate at decimal dilutions in the range 250 to 2.5 µg/mL for the extracts and 100 to 0.001 µM for compounds 1–2. Control cells were exposed to an equivalent amount of DMSO (0.25% v/v, negative control). Cells were incubated for an additional 48 h, after which time they were precipitated with 25 μL of ice-cold TCA (50% w/v) and fixed for 60 min at 4 °C [20]. Following sulforhodamine B staining, the optical density (OD) of each well was measured at 530 nm using a BioTek Power Wave XS absorbance microplate reader. Values were corrected with the background OD of the wells containing the control. […] The cell lines used in this study were kindly provided by Prof. Godefridus J. Peters (VUmc, Amsterdam, The Netherlands).

For assay [2], the system named is HeLa cells (cervix). Kind of assay: Antiproliferative activity (SRB), HeLa. The class given is cell-based. To be noted: 48 h; for TGI (total growth inhibition) against HeLa cells / GI50: SRB; for LC50 (50% lethal concentration): read-out: LC50 against HeLa cells; for GI50: means ± SEM, n = 3. The procedure:
as §1, §2

The subject of assay [3] is intact rat aorta. Briefly: Vascular reactivity, relaxation of PE pre-contracted aortic rings. Also noted: species or system Sprague Dawley rats. The following applies: 10^−9–10^−4 M, pre-contracted with 10^−6 M PE, three experiments. The procedure: The investigation was conducted according to the local ethics research committee of Universidad de Antofagasta, which ratified the experimental procedures (CEIC #275/2020 and CEIC #366/2022) for the use of a normotensive animal model (n = 3–6). The characteristics of the animals were as follows: male Sprague Dawley rats, six to eight weeks old, weighing between 170 and 200 g. The animals were kept at room temperature (22–25 °C) with 45–51% of humidity with ad libitum free-choice access to tap water and food and were randomized.
All the animals were euthanized by cervical dislocation and immediately proceeded to dissection of the aorta. Then the vascular tissue was arranged in organ baths that were filled with Krebs-Ringer bicarbonate solution pH 7.4 and remained at 37 °C with a constant flux of gas (95% O2 and 5% CO2). Once the tissue was stabilized and the integrity of the vascular endothelium was evaluated, the aortic rings were pre-contracted with 10^−6 M phenylephrine (PE), and after ten minutes, increasing concentrations of G. pinifolium extract, 2-nor-1,2-secolycoserone or ent-labda-8,13-E-diene-15-ol were added in the organ bath.
The data acquired from vascular reactivity assays were expressed as average ± standard error of the mean (SEM). One-way analysis of variance (ANOVA) followed by the Dunnett test was employed for statistical data analysis. […]

The subject of assay [4] is A549 cells (lung). Briefly: Antiproliferative activity (SRB), A549. The class given is cell-based, human. To be noted: means ± SEM, n = 3. The method, then: as §1, §2
Assay [5] concerns HeLa cells. Kind of assay: Label-free continuous live-cell imaging, apoptosis kinetics (LCDA). The class given is cell-based, human. The following applies: 20 h exposure, 1 at 80 µM, 2 at 50 µM. The method, then:
The imaging platform microscope CX-A (Nanolive SA, Lausanne, Switzerland) was used to get refractive indexes (RIs), creating a holotomographic 3D image of the cells. HeLa cells were employed at a density of 50,000 cells/well onto an IBIDI μ-Dish, 35 mm high (IBIDI, Gräfelfing, Munich, Germany) and treated with compounds 1 and 2 right before the acquisition of the images at a dose of 80 µM and 50 µM, respectively. Data obtained were transferred to FIJI (NIH, Bethesda, MD, USA) for image analysis. The LIVE Cell Death Assay (LCDA) software (Nanolive SA) was used for the analysis of the RIs and for obtaining apoptosis kinetics.

For assay [6], the system named is A549, SW1573, HBL-100, T-47D, HeLa, WiDr. Briefly: Antiproliferative activity (SRB), panel of six human solid tumor cell lines. The class given is cell-based. The following applies: 48 h, read-out: GI50 range over all cell lines. The procedure: as §1, §2
Assay [7] has as its system HBL-100 cells (breast). Kind of assay: Antiproliferative activity (SRB), HBL-100. The class given is cell-based, human. To be noted: means ± SEM, n = 3. The method, then: as §1, §2
Assay [8] relates to SW1573 cells (lung). Briefly: Antiproliferative activity (SRB), SW1573. The class given is cell-based, human. The following applies: means ± SEM, n = 3. The procedure: as §1, §2
The test system of assay [9] is WiDr cells (colon). Briefly: Antiproliferative activity (SRB), WiDr. The class given is cell-based, human. The following applies: 48 h, means ± SEM, n = 3. The procedure:
as §1, §2

The target in assay [10] is T1, acetylcholinesterase (AChE) (Electrophorus electricus, UniProt O42275).
T1 construct: purchased Sigma-Aldrich Chem. Co. (St. Louis, MO, USA)
T1 sequence (O42275 24-633): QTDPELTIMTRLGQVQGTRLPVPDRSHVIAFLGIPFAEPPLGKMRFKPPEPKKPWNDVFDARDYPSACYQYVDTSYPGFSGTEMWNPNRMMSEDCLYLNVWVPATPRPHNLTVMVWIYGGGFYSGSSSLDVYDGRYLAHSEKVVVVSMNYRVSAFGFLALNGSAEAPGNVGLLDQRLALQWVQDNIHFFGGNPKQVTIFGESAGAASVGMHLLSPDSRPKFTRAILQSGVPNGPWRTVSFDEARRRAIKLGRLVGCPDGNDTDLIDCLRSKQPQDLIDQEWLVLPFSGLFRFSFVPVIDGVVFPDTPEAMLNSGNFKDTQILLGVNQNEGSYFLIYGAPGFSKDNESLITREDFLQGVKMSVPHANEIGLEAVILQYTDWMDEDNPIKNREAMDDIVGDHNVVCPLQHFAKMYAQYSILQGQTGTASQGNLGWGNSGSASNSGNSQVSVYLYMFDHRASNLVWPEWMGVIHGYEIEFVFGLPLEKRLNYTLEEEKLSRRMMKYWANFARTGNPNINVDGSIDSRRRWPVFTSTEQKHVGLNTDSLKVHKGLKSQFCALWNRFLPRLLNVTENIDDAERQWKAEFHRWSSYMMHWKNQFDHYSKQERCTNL
Kind of assay: biochemical. To be noted: means ± SD, n = 3; read-out: AChE Inhibition IC50 (converted). The method, then:
(§3) The systems Arium 126 61316-RO and Arium 611 UV unit (Sartorius, Goettingen, Germany) were employed to get the ultra-pure water. […] Formic acid, methanol, ethyl acetate, and n-hexane of HPLC grade were obtained from Merk® (Santiago, Chile).
(§4) The Ellman method was used for the determination of the inhibitory potential against AChE and BChE. The enzymes were dissolved in Tris-HCl buffer 50 mM at pH 8.0 at the final concentration of 0.26 U/mL, and samples were prepared at 2 mg/mL and dissolved in buffer. […] Finally, to start the reaction, we added 20 µL of the substrate (acetyl-thiocholine iodide for AChE inhibition or butyryl-thiocholine chloride for BChE inhibition assays), and the absorbance was recorded at 405 nm for half an hour at 37 °C. The analysis was performed in triplicate, and the results are expressed as IC50.

For assay [11], the target named is T2, butyrylcholinesterase (BChE) (Equus caballus, UniProt P81908).
T2 construct: purchased Sigma-Aldrich Chem. Co. (St. Louis, MO, USA); host or cells: equine serum
T2 sequence (P81908 whole entry): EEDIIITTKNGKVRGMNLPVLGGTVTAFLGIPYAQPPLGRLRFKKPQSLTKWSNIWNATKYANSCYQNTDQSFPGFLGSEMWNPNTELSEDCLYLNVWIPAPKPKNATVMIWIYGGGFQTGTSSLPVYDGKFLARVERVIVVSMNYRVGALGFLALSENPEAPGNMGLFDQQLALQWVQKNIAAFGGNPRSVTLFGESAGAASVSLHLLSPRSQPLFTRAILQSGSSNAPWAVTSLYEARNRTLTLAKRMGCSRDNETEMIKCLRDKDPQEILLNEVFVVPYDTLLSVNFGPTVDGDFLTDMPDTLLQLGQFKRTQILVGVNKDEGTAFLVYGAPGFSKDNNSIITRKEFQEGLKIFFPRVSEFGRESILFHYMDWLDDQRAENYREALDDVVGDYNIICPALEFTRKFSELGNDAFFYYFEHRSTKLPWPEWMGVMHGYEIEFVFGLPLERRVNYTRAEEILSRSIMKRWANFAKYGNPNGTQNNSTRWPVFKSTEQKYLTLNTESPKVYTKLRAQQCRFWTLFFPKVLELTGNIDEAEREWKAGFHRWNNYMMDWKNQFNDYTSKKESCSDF
Kind of assay: biochemical. The following applies: means ± SD, n = 3; read-out: BChE Inhibition IC50 (converted). The method, then: as §3, §4

For assay [12], the system named is MCF-7. Also noted: method as in doi:10.1016/j.indcrop.2015.06.033. The following applies: 24 h of drug exposure; read-out: IC50 cell growth inhibition MCF-7; cited from earlier work.
A short description of assay [13]: ABTS•+ scavenging capacity. The class given is biochemical. To be noted: mean ± SD, n = 3. The method, then:
The ABTS^•+ radical scavenging assay was employed to determine the antioxidant activity of G. pinifolium conventional extracts; the radical solution was prepared 16 h before the measurements mixing 7 mM ABTS and 2.45 mM K2S2O8, and the solution was stored protected from the light at room temperature until the ABTS radical formation. For the assay, were mixed 250 µL of ABTS radical with an increasing concentration of sample or positive control (Trolox), and after half an hour, the absorbance was measured at 734 nm with a Synergy HTX microplate reader. The results are expressed as IC50 in µg of extract or Trolox per mL. The percentage of radical inhibition formula was employed for the ABTS inhibition calculation, then the IC50 was calculated through linear regression (concentration vs. inhibition percentage), and the data is reported as the mean ± SD.

A short description of assay [14]: Radical DPPH inhibition. To be noted: mean ± SD, n = 3. The class given is biochemical.
Description: The radical DPPH inhibition was performed by mixing thoroughly 150 µL of DPPH 400 μM with 50 µL of the sample or positive control, the 96-well microplate was kept protected from the light, and after half hour of reaction, the absorbance was recorded at 515 nm in a Synergy HTX microplate reader [13, 16]. All the measurements were performed in triplicate. The data are expressed as IC50 in µg of extract or standard per mL and reported as the mean ± SD. The determination of the IC50 was performed using linear regression. Methanol was employed as a negative control and BHT as a positive control. The percentage of DPPH radical inhibition was calculated according to the following equation: Percentage of radical inhibition (%)=(1−A−As/ADPPH)×100
A: is the absorbance of the mixture of extract and radical, As: is the absorbance of the methanol and extract, and ADDPH: is the absorbance of the radical work solution.

Structures are written as SMILES. Entries after “also recorded” stand apart in the source; their conditions may differ.

Usually GI50 stands for the concentration at which growth is held to half of that of the control. As a reminder, the IC50 is the point on the concentration scale where inhibition reaches its midpoint.

For the compound `CC1=C(CC/C(C)=C/CO)[C@]2(C)CCCC(C)(C)C2CC1` (stereo partly drawn) [Compound 2, ent-labda-8,13-E-diene-15-ol], the GI50 in [1] (Homo sapiens, T47D) is 5.1 ± 0.3 µM; in assay [2] (Homo sapiens, HeLa) it was 4.8 ± 0.3 µM; in assay [4] (Homo sapiens, A549, 48 h), 4.5 ± 0.1 µM; in [6], 4.5 to 10 µM; in [7] (Homo sapiens, HBL-100, 48 h) it was 10 ± 1.3 µM; in [8] (Homo sapiens, SW1573, 48 h), 5.4 ± 0.6 µM. The GI50 in assay [9] (Homo sapiens, WiDr) worked out at 9 ± 3.4 µM. In addition, in assay [2], the “TGI (total growth inhibition) against HeLa cells” value was found to be 46 ± 0.3 µM. Also, in assay [2] (Homo sapiens, HeLa), the LC50 (50% lethal concentration) turned out to be 69 ± 27 µM. In addition, the “relaxation effect in aortic rings” value in assay [3] is reported as “slight relaxation effect; also recorded: do not cause vascular relaxation; also recorded: no vascular relaxation”. In addition, in assay [5], the “apoptosis kinetics (onset of cell death)” value is reported as “induce death in HeLa cells earlier than coumarin 1”. Also, the IC50 in assay [10] was 18.8 µM; in assay [11] it was 63.1 µM.
On to `CC1=C(C(=O)CC(C)C)O[C@@H](CC(=O)c2c(C)cccc2O)[C@H]2[C@@H]1CC[C@@H]2C` [Compound 1, 2-nor-1,2-secolycoserone], for which the IC50 was 15 µM in assay [12], 3.15 µM in [10] and 29.2 µM in [11]. Moreover, the GI50 stood at 30 ± 0.1 µM in assay [1] (Homo sapiens, T47D); 21 ± 4.5 µM in [2] (Homo sapiens, HeLa); 23 ± 7.2 µM in assay [4] (Homo sapiens, A549, 48 h); 31 ± 0.3 µM in assay [7] (Homo sapiens, HBL-100, 48 h); 25 ± 5.6 µM in assay [8] (Homo sapiens, SW1573, 48 h); 36 ± 4.1 µM in assay [9] (Homo sapiens, WiDr). For the same compound, the “TGI (total growth inhibition) against HeLa cells” value in [2] stood at 82 ± 4.5 µM. In addition, the LC50 (50% lethal concentration) in [2] (Homo sapiens, HeLa) is greater than 100 µM. Also, the “relaxation effect in aortic rings” value in assay [3] was “slight relaxation effect; also recorded: do not cause vascular relaxation”.
For `Cc1c(C)c2c(c(C)c1O)CCC(C)(C(=O)O)O2` (racemic) [Trolox, (±)-6-Hydroxy-2,5,7,8-tetramethylchromane-2-carboxylic acid], the “ABTS IC50” value in assay [13] was 2.33 ± 0.11 μg per mL.
As for `N.N.[Cl][Pt][Cl]` [Cisplatin, reference compound], the 50% growth inhibitory concentration (GI50) in assay [1] came out at 17 ± 3.3 µM; in [2], 1.8 ± 0.5 µM; in assay [4] (48 h), 4.9 ± 0.2 µM; in assay [7] (48 h), 1.9 ± 0.2 µM; in assay [8] (48 h), 2.7 ± 0.4 µM; in assay [9] it was 23 ± 4.3 µM.
For `Cc1cc(C(C)(C)C)c(O)c(C(C)(C)C)c1` [BHT], the “DPPH IC50” value in [14] was 25.09 ± 0.55 μg per mL.

(Values after article PMC9774750, “Phenolic Fingerprinting and Bioactivity Profiling of Extracts and Isolated Compounds from Gypothamnium pinifolium Phil” (Antioxidants, 2022).)
